In US7674464B2, “Intracellular interleukin-1 receptor antagonists” (The University of Tennessee Research Foundation, priority 2004, dated 2010):
“Also recorded” adds a separate entry of the source.

Legend:
icIL-1ra type 1 mRNA = experiment: antisense oligonucleotide against icIL-1ra type 1 in HF-icIL-1ra fibroblasts, MMP-1 mRNA by RT-PCR; type: cell-based, human; details: for MMP-1 mRNA levels: HF-icIL-1ra, vs PBS, empty liposome, scrambled oligonucleotide
Description: Phosphorothioate-derivatized antisense oligodeoxynucleotide complimentary to −6 to +12 of the natural icIL-1ra was synthesized and purified by HPLC Integrated DNA Technologies Inc. (Coralville, Iowa). As a control, antisense oligonucleotide with a scrambled sequence was prepared by a similar method. Fibroblasts over-expressing icIL-1ra type 1 were transfected with […] of antisense icIL-1ra type 1 oligonucleotide (24 h prior to stimulation with 100 pg/ml of IL-1 beta) using LipofectAMINE™ protocol. PBS and LipofectAMINE™ alone served as additional controls. The cells were harvested 12-18 h after stimulation for RNA extraction. Total RNA was reverse transcribed and MMP-1 mRNA was estimated by semi-quantitative RT-PCR.
Fibroblasts over-expressing icIL-1ra type 1 were transfected with different concentrations of antisense icIL-1ra type 1 oligonucleotide (24 h prior to stimulation with IL-1β) using LipofectAMINE. PBS alone, LipofectAMINE alone and treatment with oligonucleotide having scrambled sequence served as controls. The cells were harvested 12-18 h after stimulation for RNA extraction. Total RNA was reverse transcribed and MMP-1 mRNA was estimated by real time RT-PCR. The values indicate mean±SD of three independent experiments performed on same batch of transfected geneticin selected fibroblasts (LIPO: LipofectAMINE alone, ANTIS-LIP: Antisense icIL-1ra oligonucleotide+LipofectAMINE, SCRAM-LIP: Scrambled oligonucleotide+LipofectAMINE).
Cells transfected with intracellular isoform of IL-1 receptor antagonist type 1 (HF-icIL-1ra) were treated with varying concentrations of antisense oligonucleotide directed against the intracellular isoform of IL-1 receptor antagonist type 1 mRNA. Oligonucleotide with a scrambled sequence was used as control. Both oligonucleotides were mixed with LipofectAMINE™ reagent to enhance cellular uptake.
Using the approach described in Example 5, a phosphorothioate-derivatized antisense oligodeoxynucleotide complimentary to −6 to +12 (5′-CGTCTGTAAAGGCATGGG-3′ SEQ ID NO: 41) of the natural icIL-1ra type 1 was synthesized and RHPLC purified. […]

collagenase (MMP-1) = experiment: IL-1β-induced collagenase (MMP-1) production by dermal fibroblasts, ELISA; type: cell-based, human; details: added 2 hours before IL-1β, 48 hrs, IL1β + PBS 1351, PBS + PBS 556
Description: Confluent fibroblast monolayer cultures were treated for 2 hr with IL-1ra peptides and cultured for 48 h with hrIL-1β. Collagenase protein was measured in culture supernatants by ELISA.
Furthermore, the effect of the IL-1ra peptides on the stimulation of MMP-1 and TIMP expression was examined. Briefly, fibroblasts were seeded in wells of Flacon 3008 multiwell plates (5×10^4 cells/500 μl Maintenance Medium). After 72 h culture, the medium was removed from each well and replaced with Maintenance Medium (450 μl) containing 5% FCS and 25 μl of IL-1ra peptides or hrsIL-1ra peptide being tested. Two hrs later 25 μl IL-1β (100 pg/ml) was added to appropriate wells. Plates were incubated for 48 h, at which time medium was collected from each well. Levels of TIMP and collagenase produced by fibroblasts during culture were measured by specific ELISA techniques as previously described (Postlethwaite et al., 1988).

[1] = tested on: collagen-induced arthritis (CIA); experiment: collagen-induced arthritis in DBA/1 lac mice, peptides by s.c. injection; type: in vivo; details: s.c. 227 μg/kg once daily, 5 consecutive days each week, day 22 to day 50, vs control peptide IL-1ra 37-30
Description: Groups of 12 mice were treated with subcutaneous injections of NLS-IL-1ra 1-35 (SEQ ID NO: 18), NLS-IL-1ra 30-37 ([…]) or IL-1ra 37-30 (SEQ ID NO: 43) as a control beginning day 22 to day 50. Mice were injected once each consecutive 5 days out of each week. Mean arthritic score is shoon. P values are determined by Students' t test.
The peptides disclosed in table 11 were delivered to the mice using 2 approaches. The first approach consisted of daily injections for 5 days each week via the subcutaneous (s.c.) route after the first appearance of clinical arthritis. The second approach consisted of continuous delivery via a subcutaneously implanted osmotic pump. For these studies, the following protocols were used: Since a smaller fragment of the 37 amino acid IL-1ra peptide containing amino acids LVAGY (SEQ ID NO: 42) inhibit IL-1β, TNFα, and bFGF induction of MMP-1 in human fibroblasts in vitro, effects of several peptides containing the LVAGY (SEQ ID NO: 42) sequence (Table 11) on CIA in mice was examined.
For s.c. injected route of delivery, 36 six-week old female DBA-1 lac mice were immunized with a stable emulsion of complete Freund's adjuvant (CFA) and native bovine II prepared as previously described (Seyer et al., 1989). Each mouse received 100 μg CII in 50 μl of the CFA CII emulsion intradermally at the base of the tail. Beginning day 14 post immunization, mice were examined for the presence of paw swelling as an indication of the onset of arthritis. On day 21 post immunization, the first paw swelling occurred in 2 mice and on day 22 post immunization, mice were divided into groups of 12. NLS-IL-1ra 1-35 (SEQ ID NO: 18), NSL-IL-1ra 30-37 (SEQ ID NO: 43), and reverse control peptide IL-1ra 37-30 (SEQ ID NO: 44) were separately administered s.c. to groups of 12 mice beginning on day 22 post immunization to day 50 post immunization. […] Results described herein are expressed as the mean arthritic score per mouse arrived at by adding up the total joint scores for mice in each group divided by the number of mice in the group.

collagenase [2] = experiment: TNF alpha-stimulated fibroblast collagenase production; type: cell-based; details: TNF alpha + PBS 9391, PBS 645
Description: (§1) To potentially enhance translocation of the peptide, a nuclear localization sequence (NLS), namely, KKKMEKR from human IL-1β was added to the peptide with SEQ ID NO: 13 and the effect of the peptide with and without the NLS on collagenase production was assessed. In this case the cultures were stimulated with TNF-α or basic fibroblast growth factor (bFGF).

collagenase [3] = experiment: bFGF-stimulated fibroblast collagenase production; type: cell-based; details: bFGF + PBS 5058, PBS 645
Description: as §1

[4] = tested on: collagen-induced arthritis (CIA); experiment: collagen-induced arthritis in DBA/1 mice, peptide by osmotic pump; type: in vivo
Description: The mice (total=20) were immunized by subcutaneous injection at the base of the tail with 100 μg/ml of bovine CII in CFA at day 0. At day 20, an Alzet Osmotic pump-2004 containing 1.67 mg NLS-IL-1ra (1-35) peptide (SEQ ID NO: 18) in 200 microliters D5W solvent (n=10) or the solvent alone (n=10) was surgically inserted subcutaneously in each of 10 mice. Beginning at 21 days after immunization, mice were monitored for the severity (FIG. 40A) and incidence (FIG. 40B) of arthritis.
For osmotic pump delivery of peptide, at day 20 following immunization, an Alzet Osmotic pump-2004 (Durect Corporation, Cupertino, Calif.), containing 1.67 mg NLS-ILra 1-35 peptide in 200 microliters D5W solvent was surgically inserted subcutaneously in each of 10 mice. According to the manufacturer's specifications, the pumps are designed to inject constantly for 4 weeks at the speed of […] 6 μl (50 μg peptide)/day. Each of the 10 control mice received a pump containing same amount D5W only. Animals were periodically monitored for incidence and severity of arthritis and scored as described above.

[5] = IL1β (100 pg/mL) + peptide 100 ng/mL
[6] = IL1β (100 pg/mL) + peptide 1 μg/mL
[7] = IL1β (100 pg/mL) + peptide 10 μg/mL

Substance | Collagenase (collagenase (MMP-1); [5]) [ng/mL] | Collagenase (collagenase (MMP-1); [6]) [ng/mL] | Collagenase (collagenase (MMP-1); [7]) [ng/mL] | other results
5′-CGTCTGTAAAGGCATGGG-3′ (DNA, all phosphorothioate, methylation of C not given here) | – | – | – | reduced expression of MMP-1 mRNA and protein in icIL-1ra transfected fibroblasts (icIL-1ra type 1 mRNA; FIG. 36): reversed; MMP-1 mRNA levels (icIL-1ra type 1 mRNA; 200 mM antisense, 1.0 ng/ml hrIL-1β): significantly higher; MMP-1 mRNA levels (icIL-1ra type 1 mRNA; 300 mM antisense with LipofectAMINE, IL-1β stimulated, p=0.001): significantly higher
FYLRNNQLVAGYLQG (IL-1ra peptides) [SEQ ID NO: 21] | 2142 | 2361 | 2581 | –
KKKMEKRLVAGYLQG (IL-1ra peptide) [NLS IL-1ra 30-37] | – | – | – | suppression of CIA, mean arthritic score ([1]; listed as NSL IL-1ra 30-37): suppressed CIA; suppression of CIA, mean arthritic score ([1]; listed as NSL-sIL-1ra 30-37): effective in reducing arthritis
KKKMEKRRPSGRKSSKMQAFRIWDVNQKTFYLRNNQLVAGYL (IL-1ra peptides) [NLS-IL-1ra] | – | – | – | Collagenase (collagenase [2]; TNF alpha (5 ng/ml) + peptide 100 pg/ml): 243 ng/mL; Collagenase (collagenase [2]; TNF alpha (5 ng/ml) + peptide 1 ng/ml): 238 ng/mL; Collagenase (collagenase [2]; TNF alpha (5 ng/ml) + peptide 10 ng/ml): 1199 ng/mL; Collagenase (collagenase [2]; TNF alpha (5 ng/ml) + peptide 100 ng/ml): 1254 ng/mL; Collagenase (collagenase [2]; TNF alpha (5 ng/ml) + peptide 1 μg/ml): 849 ng/mL; Collagenase (collagenase [3]; bFGF (5 ng/ml) + peptide 100 pg/ml): 2367 ng/mL; Collagenase (collagenase [3]; bFGF (5 ng/ml) + peptide 1 ng/ml): 2541 ng/mL; Collagenase (collagenase [3]; bFGF (5 ng/ml) + peptide 10 ng/ml): 3167 ng/mL; Collagenase (collagenase [3]; bFGF (5 ng/ml) + peptide 100 ng/ml): 3199 ng/mL; Collagenase (collagenase [3]; bFGF (5 ng/ml) + peptide 1 μg/ml): 5649 ng/mL; suppression of CIA, mean arthritic score [1]: suppressed CIA; incidence and severity of arthritis ([4]; osmotic pump from day 20, 50 μg peptide/day for 4 weeks, vs D5W solvent, listed as NLS-IL-1ra 1-35): reduced; also recorded: reduces incidence and severity of arthritis; delay of the onset of arthritis ([4]; osmotic pump, incidence and severity reached control levels after this time): 20 days
MQAFRIWDVNQKTFYLR (IL-1ra peptides) [SEQ ID NO: 20] | 2644 | 2139 | 2036 | –
RPSGRKSSKMQAFRI (IL-1ra peptides) [SEQ ID NO: 19] | 1746 | 1152 | 1267 | –

The next lines start with results.

Collagenase (collagenase (MMP-1); [5]) [ng/mL] | Collagenase (collagenase (MMP-1); [6]) [ng/mL] | Collagenase (collagenase (MMP-1); [7]) [ng/mL] | Substance | other results
1514 | 1827 | 1881 | FYLRNNQ (IL-1ra peptides) [SEQ ID NO: 22] | –
857 | 841 | 749 | LVAGYLQG (IL-1ra peptides) [SEQ ID NO: 24] | –
541 | 619 | 1078 | NNQLVAGY (IL-1ra peptides) [SEQ ID NO: 23] | –
